Experimental data published in patent publication US10159685B2, “Vascular calcification” (Cambridge Enterprise Limited, priority 2016, dated 2018).
Where two headings read alike, the source gives them in different places. Marks after values point to notes of the source that are not given here.

Columns and labels:
[1] = tested on: bovine vascular smooth muscle cells (bVSMCs); type: cell-based; settings: 7 days; for Cell viability of bVSMCs after seven days (MTT signal, relative to control): mean of three experiments
Method: The toxicity of the identified compounds to bovine VSMCs was measured using the MTT assay, which measures the activity of dehydrogenase enzymes of live cells. This assay can pick up both cell death and proliferation.
Bovine VSMCs were seeded in 96 well plates and cultured in M199/20% FCS for 1 day. Then, the cells were incubated with inhibitor concentrations from 0.5 to 100 μM (in M199 medium+5% FBS). The cells were incubated with the inhibitors for 7 days; every 2-3 days the medium −/+inhibitors was exchanged. Then, the MTT assay was performed. The stock vehicle DMSO was tested at corresponding concentrations to the inhibitors at 0.1% DMSO or less.

[2] = tested on: human monocyte-macrophages (HMMs); experiment: MTT toxicity assay, HMMs, seven days (Example 3); type: cell-based; settings: 7 days; for Cell viability by MTT, percent of control: mean of three experiments
Method: A similar set of toxicity experiments was performed with human monocyte-macrophages (HMMs).

[3] = tested on: bovine vascular smooth muscle cells (bVSMCs); experiment: Alizarin Red S staining, bVSMC GAD calcification model (Example 4); type: cell-based; settings: GAD-treated bVSMCs, 10 μM, 7 d, versus no inhibitor
Method: (§1) For the bVSMCs a GAD medium (10 mM β-glycerophosphate/0.1 mM L-ascorbic acid-2-phosphate/10 nM dexamethasone) model was used to induce mineralization in bVSMCs. Accordingly, cells were seeded in tissue culture plates using M199/20% FCS culture medium and cultured overnight. The next day, cells were treated either with medium only (M199/5% FBS)+/−inhibitors, or with the GAD-medium (10 mM β-glycerophosphate/0.1 mM L-ascorbic acid-2-phosphate/[…] dexamethasone)+/−inhibitors.
Medium+/−inhibitors was exchanged every 2-3 days. Bovine VSMCs were incubated for 7 d prior to assessment.
The Alizarin Red S staining is a visual/histological stain for tissue calcium deposits. Cells are briefly fixed in 4% paraformaldehyde/PIPES buffer pH 7.2 and subsequently stained for 5 min with Alizarin Red S (2% Alizarin Red S/DIW pH 4.2). Excess stain is removed by washing in DIW. Calcium mineral deposits are stained a bright orange red.

[4] = tested on: bovine vascular smooth muscle cells (bVSMCs); experiment: o-Cresolphthalein Ca2+ assay, bVSMC GAD calcification model (Examples 4 and 5); type: cell-based
Method: as §1
Medium+/−inhibitors was exchanged every 2-3 days. […]
The o-Cresolphthalein assay is a spectrophotometric method for measuring Ca^2+-concentrations in cell/tissue lysates. Following the calcification experiments, cells are briefly washed to remove medium and 100 […]1 of 0.1 N HCl is added to each well to dissolve any mineral deposits. Then, the Ca^2+-concentration of the samples is measured spectrophotometrically (at 570 nm) in the o-cresolphthalein assay with the help of a CaCl2 standard curve in a concentration range of ˜0.02-270 µg Ca^2+/ml.
The commercial BioRad DC protein assay is based on the Lowry method, aka reaction of proteins with a copper-tartrate complex and subsequent reaction with Folin's reagent. Following the calcification experiment, cells are briefly washed to remove medium and 100 µl of solubilisation solution (0.1 M NaOH/1% SDS/DIW) is added to each well to lyse the cells. The protein concentrations of the lysates are subsequently determined in the BioRad DC assay as per supplier's instructions using BSA (bovine serum albumin) as standard.
The in vitro model is the same as the model used in example 4; bovine vascular smooth muscle cells (bVSMCs) cultured so that they produce extracellular matrix, with the addition of the GAD medium (10 mM β-glycerophosphate/0.1 mM L-ascorbic acid-2-phosphate/10 nM dexamethasone).
As above, cells were treated either with medium only (“no-additions”; NA)+/−inhibitors, or with the GAD-medium+/−inhibitors. The inhibitors used were PJ34 and minocyclin (MC) at 10 μM, 1 μM and 0.1 μM.
The methodology was the same as that described in example 4.

[5] = tested on: bovine vascular smooth muscle cells (bVSMCs); experiment: MTT cell viability assay, bVSMCs with or without GAD medium, 7 or 9 days (Example 5); type: cell-based
Method: As above, cells were treated either with medium only (“no-additions”; NA)+/−inhibitors, or with the GAD-medium+/−inhibitors. […] Additionally, an MTT assay was performed as a measure of cell viability/proliferation. Bovine VSMCs were seeded in 96 well plates and cultured in M199/20% FCS for 1 day. Then, the cells were incubated with inhibitor concentrations of 10 μM, 1 μM and 0.1 μM (in M199 medium+5% FBS). […] Then, the MTT assay was performed.

[6] = tested on: human vascular smooth muscle cells (hVSMCs); experiment: o-Cresolphthalein Ca2+ assay, hVSMC Ca/P calcification model (Examples 7-9); type: cell-based; settings: hVSMCs, 6 days; PJ34 10 μM; minocycline and cilostazol 0.5, 1 and 2 μM
Method: (§2) Primary hVSMCs were cultured in M199 media containing FBS (M199/5% FBS). They were plated at a known cell density, allowed to grow for 24 hours and then treated with control (DMSO only) or calcification media (DMSO containing 2.7 mM Calcium+2.5 mM phosphate)+/−inhibitors. After 6 days, calcification was assessed using the o-Cresolphthalein assay for quantification of Ca^2+ deposition and a BioRad protein assay for protein content.
Medium+/−inhibitors was exchanged every 2-3 days.
as §2, with “8” for “6”, “using” for “using the”
All of the compounds tested were used at a concentration of 3 μM. Medium+/−inhibitors was exchanged every 2-3 days.
as §2, with “phosphate)+/−compounds.” for “phosphate)+/−inhibitors.”, “8” for “6”, “using” for “using the”
These concentrations were chosen to mimic the systemic concentrations of these drugs following patient dosing according to the dose schedule in the prescribing information for each drug. Medium+/−inhibitors was exchanged every 2-3 days.

[7] = tested on: PARP produced by a mammalian cell; settings: have been shown; cited from earlier work
[8] = human, in vivo
[9] = cited from earlier work

## CN(C)CC(=O)Nc1ccc2[nH]c(=O)c3ccccc3c2c1.Cl [PJ34, N-(6-Oxo-5,6-dihydrophenanthridin-2-yl)-(N,N-dimethylamino)acetamide hydrochloride]
[1]; 0.5 uM
  Cell viability of bVSMCs after seven days (MTT signal, relative to control): 102.59
[1]; 1 uM
  Cell viability of bVSMCs after seven days (MTT signal, relative to control): 98.89
[1]; 2 uM
  Cell viability of bVSMCs after seven days (MTT signal, relative to control): 92.33
[1]; 5 uM
  Cell viability of bVSMCs after seven days (MTT signal, relative to control): 95.74
[1]; 10 uM
  Cell viability of bVSMCs after seven days (MTT signal, relative to control): 97.07
[1]; 20 uM
  Cell viability of bVSMCs after seven days (MTT signal, relative to control): 99.71
[1]; 50 uM
  Cell viability of bVSMCs after seven days (MTT signal, relative to control): 80.83*
[1]; 100 uM
  Cell viability of bVSMCs after seven days (MTT signal, relative to control): 53.72*
[1]; at 50 and 100 μM
  Toxicity to bVSMCs (MTT assay, in words): toxic
[1]; bVSMCs
  Cell death in bVSMCs (FIG. 4A and example 2): induce some cell death
[2]; 0.5 uM
  Cell viability by MTT, percent of control: 106.63
[2]; 1 uM
  Cell viability by MTT, percent of control: 88.38
[2]; 2 uM
  Cell viability by MTT, percent of control: 84.08
[2]; 5 uM
  Cell viability by MTT, percent of control: 95.65
[2]; 10 uM
  Cell viability by MTT, percent of control: 77.14
[2]; 20 uM
  Cell viability by MTT, percent of control: 74.86
[2]; 50 uM
  Cell viability by MTT, percent of control: 60.33*
[2]; 100 uM
  Cell viability by MTT, percent of control: 37.30*
[2]; at a concentration of 100 μM
  Toxicity to HMMs (in words): most toxic
[3]
  Degree of mineralization judged by eye (Alizarin Red S, FIG. 6): slightly worse
[4]; GAD-treated bVSMCs, 10 μM, 7 d
  Calcium levels (mass of calcium, FIG. 7B) compared to no inhibitors: elevate calcium levels
  Normalised calcium levels (mass of calcium per mass of protein, FIG. 9B): elevate calcium levels
[4]; bVSMC GAD model
  Effect on calcification (in words, discussion of Example 5): encouraging calcification
[4]; nine days, no GAD, 0.1 μM
  Ca^2+ concentration found in bVSMCs, mean: 1.438 μg calcium/ml
[4]; nine days, no GAD, 1 μM
  Ca^2+ concentration found in bVSMCs, mean: 1.179 μg calcium/ml
[4]; nine days, no GAD, 10 μM
  Ca^2+ concentration found in bVSMCs, mean: 1.061 μg calcium/ml
[4]; nine days, with GAD, 0.1 μM
  Ca^2+ concentration found in bVSMCs, mean: 22.69 μg calcium/ml
[4]; nine days, with GAD, 1 μM
  Ca^2+ concentration found in bVSMCs, mean: 132.87 μg calcium/ml
[4]; nine days, with GAD, 10 μM
  Ca^2+ concentration found in bVSMCs, mean: 66.68 μg calcium/ml
[4]; seven days, no GAD, 0.1 μM
  Ca^2+ concentration found in bVSMCs, mean: 0.612 μg calcium/ml
[4]; seven days, no GAD, 1 μM
  Ca^2+ concentration found in bVSMCs, mean: 0.565 μg calcium/ml
[4]; seven days, no GAD, 10 μM
  Ca^2+ concentration found in bVSMCs, mean: 0.561 μg calcium/ml
[4]; seven days, with GAD, 0.1 μM
  Ca^2+ concentration found in bVSMCs, mean: 1.84 μg calcium/ml
[4]; seven days, with GAD, 1 μM
  Ca^2+ concentration found in bVSMCs, mean: 4.06 μg calcium/ml
[4]; seven days, with GAD, 10 μM
  Ca^2+ concentration found in bVSMCs, mean: 4.93 μg calcium/ml
[5]; nine days, no GAD, 0.1 μM
  Cell viability (%) mean: 99.88%
[5]; nine days, no GAD, 1 μM
  Cell viability (%) mean: 97.1%
[5]; nine days, no GAD, 10 μM
  Cell viability (%) mean: 98.3%
[5]; nine days, with GAD, 0.1 μM
  Cell viability (%) mean: 69.43%
[5]; nine days, with GAD, 1 μM
  Cell viability (%) mean: 59.06%
[5]; nine days, with GAD, 10 μM
  Cell viability (%) mean: 69.43%
[5]; seven days, no GAD, 0.1 μM
  Cell viability (%) mean: 93.81%
[5]; seven days, no GAD, 1 μM
  Cell viability (%) mean: 97.16%
[5]; seven days, no GAD, 10 μM
  Cell viability (%) mean: 99.25%
[5]; seven days, with GAD, 0.1 μM
  Cell viability (%) mean: 96.46%
[5]; seven days, with GAD, 1 μM
  Cell viability (%) mean: 94.61%
[5]; seven days, with GAD, 10 μM
  Cell viability (%) mean: 90.03%
[6]
  Calcium levels (mass of calcium, FIG. 17) versus DMSO Ca+P positive control: reduce the calcium levels
  Normalised calcium levels (mass of calcium per mass of protein, FIG. 19): lower calcium levels significantly
[7]
  Inhibition of PARP produced by a mammalian cell: inhibit PARP

## CN(C)c1ccc(O)c2c1C[C@H]1C[C@H]3[C@H](N(C)C)C(O)=C(C(N)=O)C(=O)[C@@]3(O)C(O)=C1C2=O [minocycline]
[1]; at the concentrations tested (0.5 to 100 μM)
  Toxicity to bVSMCs (MTT assay, in words): non-toxic
[4]; Bos taurus, 216 h, bVSMCs, GAD medium, nine days, 1 μM, read-out: Reduction of Ca^2+ deposition compared to no potential inhibitor
  inhibition at 1 µM: ~38%
[4]; Bos taurus, 216 h, bVSMCs, GAD medium, nine days, 10 μM, read-out: Reduction of Ca^2+ deposition compared to no potential inhibitor
  inhibition at 10 µM: ~81%
[4]; bVSMC GAD model, Example 5
  Concentration at which calcification is inhibited (as low as): 1 µM
[4]; nine days, no GAD, 0.1 μM
  Ca^2+ concentration found in bVSMCs, mean: 1.484 μg calcium/ml
[4]; nine days, no GAD, 1 μM
  Ca^2+ concentration found in bVSMCs, mean: 1.327 μg calcium/ml
[4]; nine days, no GAD, 10 μM
  Ca^2+ concentration found in bVSMCs, mean: 0.925 μg calcium/ml
[4]; nine days, with GAD, 0.1 μM
  Ca^2+ concentration found in bVSMCs, mean: 26.16 μg calcium/ml
[4]; nine days, with GAD, 1 μM
  Ca^2+ concentration found in bVSMCs, mean: 21.35 μg calcium/ml
[4]; nine days, with GAD, 10 μM
  Ca^2+ concentration found in bVSMCs, mean: 3.74 μg calcium/ml
[4]; seven days, no GAD, 0.1 μM
  Ca^2+ concentration found in bVSMCs, mean: 0.654 μg calcium/ml
[4]; seven days, no GAD, 1 μM
  Ca^2+ concentration found in bVSMCs, mean: 0.595 μg calcium/ml
[4]; seven days, no GAD, 10 μM
  Ca^2+ concentration found in bVSMCs, mean: 0.523 μg calcium/ml
[4]; seven days, with GAD, 0.1 μM
  Ca^2+ concentration found in bVSMCs, mean: 1.79 μg calcium/ml
[4]; seven days, with GAD, 1 μM
  Ca^2+ concentration found in bVSMCs, mean: 2 μg calcium/ml
[4]; seven days, with GAD, 10 μM
  Ca^2+ concentration found in bVSMCs, mean: 2.38 μg calcium/ml
[5]; nine days, no GAD, 1 μM
  Cell viability (%) mean: 96.64%
[5]; nine days, no GAD, 10 μM
  Cell viability (%) mean: 105.1%
[5]; nine days, with GAD, 0.1 μM
  Cell viability (%) mean: 74.53%
[5]; nine days, with GAD, 1 μM
  Cell viability (%) mean: 72.42%
[5]; nine days, with GAD, 10 μM
  Cell viability (%) mean: 105.89%
  Drop off in formazan production (MTT) in the GAD-treatment group: not observed
[5]; seven days, no GAD, 0.1 μM
  Cell viability (%) mean: 94.56%
[5]; seven days, no GAD, 1 μM
  Cell viability (%) mean: 91.09%
[5]; seven days, no GAD, 10 μM
  Cell viability (%) mean: 95.49%
[5]; seven days, with GAD, 1 μM
  Cell viability (%) mean: 96.84%
[5]; seven days, with GAD, 10 μM
  Cell viability (%) mean: 102.07%
[8]
  dosage needed to reach the concentration of 0.46 micrograms/mL: approximately 20 mg
[9]; 50 mg oral dose
  maximum concentration (Cmax) in a patient's bloodstream: 0.65 micrograms/mL
[9]; in vivo
  half-life in the body: approximately 12 hours
